Reference: patent US9708334B2, “Substituted 2,4,5,6-tetrahydropyrrolo[3,4-c]pyrazole and 4,5,6,7-tetrahydro-2H-pyrazolo[4,3-c]pyridine compounds as GlyT1 inhibitors” (DART NEUROSCIENCE (CAYMAN) LTD., priority 2014, dated 2017)

Biological target: T1, GlyT1 (Homo sapiens, UniProt P48067)
T1 construct: expressed in transfected cells
T1 sequence (P48067 1-706): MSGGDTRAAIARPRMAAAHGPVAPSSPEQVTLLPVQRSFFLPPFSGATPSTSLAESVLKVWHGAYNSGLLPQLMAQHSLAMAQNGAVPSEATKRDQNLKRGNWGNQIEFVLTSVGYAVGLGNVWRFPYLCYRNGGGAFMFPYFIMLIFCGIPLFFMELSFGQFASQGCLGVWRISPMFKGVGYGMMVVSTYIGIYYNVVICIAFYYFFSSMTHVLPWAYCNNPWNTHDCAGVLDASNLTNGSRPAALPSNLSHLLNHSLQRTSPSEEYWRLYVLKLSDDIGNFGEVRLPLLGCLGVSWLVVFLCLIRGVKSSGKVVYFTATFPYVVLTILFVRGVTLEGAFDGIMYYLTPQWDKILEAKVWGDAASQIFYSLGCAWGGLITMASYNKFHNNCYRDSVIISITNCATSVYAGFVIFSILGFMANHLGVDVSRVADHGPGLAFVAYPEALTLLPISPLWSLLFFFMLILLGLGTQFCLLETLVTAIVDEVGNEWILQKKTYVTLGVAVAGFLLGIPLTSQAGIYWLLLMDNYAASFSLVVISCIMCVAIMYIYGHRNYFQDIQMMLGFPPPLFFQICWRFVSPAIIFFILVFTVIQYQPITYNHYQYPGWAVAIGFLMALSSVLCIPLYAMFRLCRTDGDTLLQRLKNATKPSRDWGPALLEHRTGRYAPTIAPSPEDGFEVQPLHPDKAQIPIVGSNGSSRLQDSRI
Test: Glycine Transporter 1 (GlyT1) uptake assay, scintillation proximity assay of [14C]-glycine uptake
Type: cell-based
Conditions: SPA, four parameter logistic fit, read-out: GlyT1 (pIC50) (converted)
Outline: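 [14C]-glycine uptake read by scintillation proximity on a plate counter. IC50 from four-parameter logistic fit of dose-response data.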

Row | IC50 [nM] | Structure (SMILES)
1 | 100 to 1000 | CC(C)Oc1ccc(S(=O)(=O)C(C)C)cc1C(=O)N1Cc2cn(-c3ccc(F)c(F)c3)nc2C1 [Example 99, 2-(3 4-Difluorophenyl)-5-[2-(propan-2-yloxy)-5-(propane-2-sulfonyl)benzoyl]-2H 4H 5H 6H-pyrrolo[3,4-c]pyrazole]
2 | < 100 | CNC(=O)c1ccc(OC(C)C(F)(F)F)c(C(=O)N2CCc3nn(-c4ccc(F)cc4)cc3C2)c1Cl (centres unmarked) [Example 478, 2-Chloro-3-[2-(4-fluorophenyl)-2H 4H 5H 6H 7H-pyrazolo[4,3-c]pyridine-5-carbonyl]-N-methyl-4-[(1 1 1-trifluoropropan-2-yl)oxy]benzamide]
3 | < 100 | Cc1cc(-n2cc3c(n2)CN(C(=O)c2cc(C#N)ccc2-c2cncc(F)c2)C3)ccn1 [Example 556, 4-(5-Fluoropyridin-3-yl)-3-[2-(2-methylpyridin-4-yl)-2H 4H 5H 6H-pyrrolo[3,4-c]pyrazole-5-carbonyl]benzonitrile]
4 | 100 to 1000 | COc1c(C#N)ccc(OC(C)C(F)(F)F)c1C(=O)N1CCc2nn(-c3ccccn3)cc2C1 (centres unmarked) [Example 217, 2-Methoxy-3-[2-(pyridin-2-yl)-2H 4H 5H 6H 7H-pyrazolo[4,3-c]pyridine-5-carbonyl]-4-[(1 1 1-trifluoropropan-2-yl)oxy]benzonitrile]
5 | 100 to 1000 | Cc1cc(F)cnc1-n1cc2c(n1)CN(C(=O)c1cc(C#N)ccc1O[C@@H](C)C(F)(F)F)C2 [Example 346, 3-[2-(5-Fluoro-3-methylpyridin-2-yl)-2H 4H 5H 6H-pyrrolo[3,4-c]pyrazole-5-carbonyl]-4-{[(2S)-1 1 1-trifluoropropan-2-yl]oxy}benzonitrile]
6 | < 100 | Cc1cccc(-n2cc3c(n2)CN(C(=O)c2cc(S(C)(=O)=O)ccc2O[C@@H](C)C(F)(F)F)C3)c1F [Example 42, 2-(2-Fluoro-3-methylphenyl)-5-(5-methanesulfonyl-2-{[(2S)-1 1 1-trifluoropropan-2-yl]oxy}benzoyl)-2H 4H 5H 6H-pyrrolo[3,4-e]pyrazole]
7 | < 100 | CC(C)Oc1ccc(S(C)(=O)=O)cc1C(=O)N1Cc2cn(-c3ccc(F)cc3)nc2C1 [Example 1, (2-(4-Fluorophenyl)pyrrolo[3,4-c]pyrazol-5(2H,4H,6H)-yl)(2-isopropoxy-5-(methylsulfonyl)phenyl)methanone]
8 | 1000 to 10000 | CS(=O)(=O)c1ccc(N2CCCC2)c(C(=O)N2CCc3nn(-c4ccccc4)cc3C2)c1 [Example 498, 1-(4-Methanesulfonyl-2-{2-phenyl-2H 4H 5H 6H 7H-pyrazolo[4,3-c]pyridine-5-carbonyl}phenyl)pyrrolidine]
9 | 100 to 1000 | Cc1ccccc1-n1cc2c(n1)CN(C(=O)c1cc(S(C)(=O)=O)ccc1O[C@@H](C)C(F)(F)F)C2 [Example 33, 5-(5-Methanesulfonyl-2-{[(2S)-1 1 1-trifluoropropan-2-yl]Oxy}benzoyl)-2-(2-methylphenyl)-2H 4H 5H 6H-pyrrolo[3,4-c]pyrazole]
10 | < 100 | CC(C)Oc1ccc(S(C)(=O)=O)cc1C(=O)N1Cc2cn(-c3cccc(F)c3Cl)nc2C1 [Example 149, 2-(2-Chloro-3-fluorophenyl)-5-[5-methanesulfonyl-2-(propan-2-yloxy)benzoyl]-2H 4H 5H 6H-pyrrolo[3,4-c]pyrazole]
11 | 100 to 1000 | CS(=O)(=O)c1ccc(-c2cccc(F)c2)c(C(=O)N2Cc3cnn(CC(F)(F)F)c3C2)c1 [Example 445, 5-[2-(3-Fluorophenyl)-5-methanesulfonylbenzoyl]-1-(2 2 2-trifluoroethyl)-1H 4H 5H 6H-pyrrolo[3,4-c]pyrazole]
12 | 100 to 1000 | CC(Oc1ccc(C#N)c(Cl)c1C(=O)N1CCc2nn(-c3ccccc3)cc2C1)C(F)(F)F (centres unmarked) [Example 193, 2-Chloro-3-{2-phenyl-2H 4H 5H 6H 7H-pyrazolo[4,3-c]pyridine-5-carbonyl}-4-[(1 1 1-trifluoropropan-2-yl)oxy]benzonitrile]
13 | < 100 | CS(=O)(=O)c1ccc(-c2cccc(F)c2)c(C(=O)N2Cc3cn(-c4ccccn4)nc3C2)c1 [Example 152, 2-{5-[2-(3-Fluorophenyl)-5-methanesulfonylbenzoyl]-2H 4H 5H 6H-pyrrolo[3,4-c]pyrazol-2-yl}pyridine]
14 | < 100 | Cc1cc(-n2cc3c(n2)CN(C(=O)c2cc(C#N)ccc2OCC(C)(C)C)C3)ccn1 [Example 3, 3-(2-(2-Methylpyridin-4-yl)-2,4,5,6-tetrahydropyrrolo[3,4-c]pyrazole-5-carbonyl)-4-(neopentyloxy)benzonitrile]
15 | < 100 | COc1c(C#N)ccc(OC(C)C(F)F)c1C(=O)N1Cc2cn(-c3ccc(F)cc3)nc2C1 (centres unmarked) [Example 11, 4-[(1 1-Difluoropropan-2-yl)oxy]-3-[2-(4-fluorophenyl)-2H 4H 5H 6H-pyrrolo[3,4-c]pyrazole-5-carbonyl]-2-methoxybenzonitrile]
16 | < 100 | COc1c(C#N)ccc(C2CCCC2)c1C(=O)N1Cc2cn(-c3ccc(F)cc3)nc2C1 [Example 494, 4-Cyclopentyl-3-[2-(4-fluorophenyl)-2H 4H 5H 6H-pyrrolo[3,4-c]pyrazole-5-carbonyl]-2-methoxybenzonitrile]
17 | 100 to 1000 | CC(C)Oc1ccc(S(=O)(=O)C(C)C)cc1C(=O)N1Cc2cn(-c3ccc(F)cc3)nc2C1 [Example 98, 2-(4-Fluorophenyl)-5-[2-(propan-2-yloxy)-5-(propane-2-sulfonyl)benzoyl]-2H 4H 5H 6H-pyrrolo[3,4-c]pyrazole]
18 | 100 to 1000 | Cc1nn(-c2ccc(F)cc2)c2c1CN(C(=O)c1c(OC(C)C(F)(F)F)ccc(C#N)c1Cl)CC2 (centres unmarked) [Example 190, 2-Chloro-3-[1-(4-fluorophenyl)-3-methyl-1H 4H 5H 6H 7H-pyrazolo[4,3-c]pyridine-5-carbonyl]-4-[(1 1 1-trifluoropropan-2-yl)oxy]benzonitrile]
19 | < 100 | COc1c(C#N)ccc(O[C@H](C)C(F)(F)F)c1C(=O)N1Cc2cn(-c3cncc(F)c3)nc2C1 [Example 289]
20 | < 100 | CCS(=O)(=O)c1ccc(O[C@@H](C)C(F)(F)F)c(C(=O)N2Cc3cn(-c4ccnc(C)c4)nc3C2)c1 [Example 113, 4-{5-[5-(Ethanesulfonyl)-2-{[(2S)-1 1 1-trifluoropropan-2-yl]oxy}benzoyl]-2H 4H 5H 6H-pyrrolo[3,4-c]pyrazol-2-yl}-2-methylpyridine]
21 | < 100 | CCS(=O)(=O)c1ccc(N2CCC(F)(F)CC2)c(C(=O)N2Cc3cn(-c4ccc(F)cn4)nc3C2)c1 [Example 135, 2-{5-[2-(4 4-Difluoropiperidin-1-yl)-5-(ethanesulfonyl)benzoyl]-2H 4H 5H 6H-pyrrolo[3,4-c]pyrazol-2-yl}-5-fluoropyridine]
22 | 100 to 1000 | CC(C)S(=O)(=O)c1ccc(O[C@@H](C)C(F)(F)F)c(C(=O)N2Cc3cn(-c4cccc(C(F)(F)F)c4F)nc3C2)c1 [Example 86, 2-[2-Fluoro-3-(trifluoromethyl)phenyl]-5-[5-(propane-2-sulfonyl)-2-{[(2S)-1 1 1-trifluoropropan-2-yl]oxy}benzoyl]-2H 4H 5H 6H-pyrrolo[3,4-c]pyrazole]
23 | < 100 | CCS(=O)(=O)c1ccc(OC(C)C)c(C(=O)N2Cc3cn(-c4ccccc4)nc3C2)c1 [Example 73, 5-[5-(Ethanesulfonyl)-2-(propan-2-yloxy)benzoyl]-2-phenyl-2H 4H 5H 6H-pyrrolo[3,4-c]pyrazole]
24 | 1000 to 10000 | CC(Oc1ccc(C#N)cc1C(=O)N1CCc2nn(-c3ccc(F)cc3)cc2C1)C(F)(F)F (centres unmarked) [Example 181, 3-[2-(4-Fluorophenyl)-2H 4H 5H 6H 7H-pyrazolo[4,3-c]pyridine-5-carbonyl]-4-[(1 1 1-trifluoropropan-2-yl)oxy]benzonitrile]
25 | < 100 | CC(C)Oc1ccc(S(C)(=O)=O)cc1C(=O)N1Cc2cn(-c3ccccc3)nc2C1 [Example 45, 5-[5-Methanesulfonyl-2-(propan-2-yloxy)benzoyl]-2-phenyl-2H 4H 5H 6H-pyrrolo[3,4-c]pyrazole]
26 | 100 to 1000 | CC(C)n1cc2c(n1)CN(C(=O)c1cc(S(C)(=O)=O)ccc1N1CCC(F)(F)CC1)C2 [Example 433, 4 4-Difluoro-1-{4-methanesulfonyl-2-[2-(propan-2-yl)-2H 4H 5H 6H-pyrrolo[3,4-c]pyrazole-5-carbonyl]phenyl}piperidine]
27 | < 100 | CCc1cc(-n2cc3c(n2)CN(C(=O)c2cc(C#N)ccc2O[C@@H](C)C(F)(F)F)C3)ccn1 [Example 367, 3-[2-(2-Ethylpyridin-4-yl)-2H 4H 5H 6H-pyrrolo[3,4-c]pyrazole-5-carbonyl]-4-{[(2S)-1 1 1-trifluoropropan-2-yl]oxy}benzonitrile]
28 | 100 to 1000 | CC(Oc1ccc(S(C)(=O)=O)cc1C(=O)N1CCc2c(cnn2-c2cccc(C(F)(F)F)c2)C1)C(F)(F)F (centres unmarked) [Example 162, 5-{5-Methanesulfonyl-2-[(1 1 1-trifluoropropan-2-yl)oxy]benzoyl}-1-[3-(trifluoromethyl)phenyl]-1H 4H 5H 6H 7H-pyrazolo[4,3-c]pyridine]
29 | < 100 | COc1c(C#N)ccc(O[C@@H](C)C(F)(F)F)c1C(=O)N1Cc2cn(-c3ccccc3F)nc2C1 [Example 270, 3-[2-(2-Fluorophenyl)-2H 4H 5H 6H-pyrrolo[3,4-c]pyrazole-5-carbonyl]-2-methoxy-4-{[(2S)-1 1 1-trifluoropropan-2-yl]oxy}benzonitrile]
